Laboratory results published in patent publication US20060235076A1, “Medicinal composition for treating infection with drug-resistant staphylococcus aureus” (priority 2003, published 2006).

System: MRSA
Experiment: Potentiating effect of galloyl quinic acid derivatives for the antibacterial activity of oxacillin (agar plate dilution method, MIC)
Assay type: cell-based, Staphylococcus aureus
Experimental: According to the agar plate dilution method defined by Japan Society of Chemotherapy, MIC (Minimum inhibitory concentration) was determined. CAMHA was prepared by adding 50 mg/l of Ca-ion, 25 mg/l of Mg-ion, and 2% of NaCl to Mueller-Hinton II Agar (MHA), and it was used as a medium for use in the measurement of sensitivity. The bacterial liquid was incubated at 37° C. overnight and diluted to 10^6 CFU/ml with saline.
It was confirmed that the known substances shown below were contained in “Tara” and their MICs were determined as described in example 2 with respect to the effects of the combination use with oxacillin

[1] = ATCC 6538, with 12.5 μg/ml of compound
[2] = ATCC 6538, with 25 μg/ml of compound
[3] = ATCC 6538, with 50 μg/ml of compound
[4] = MRSA 1, with 12.5 μg/ml of compound
[5] = MRSA 1, with 25 μg/ml of compound
[6] = MRSA 1, with 50 μg/ml of compound
[7] = MRSA 2, with 12.5 μg/ml of compound
[8] = MRSA 2, with 25 μg/ml of compound
[9] = MRSA 2, with 50 μg/ml of compound
[10] = MRSA 3, with 12.5 μg/ml of compound
[11] = MRSA 3, with 25 μg/ml of compound
[12] = MRSA 3, with 50 μg/ml of compound
[13] = MRSA 4, with 12.5 μg/ml of compound
[14] = MRSA 4, with 25 μg/ml of compound
[15] = MRSA 4, with 50 μg/ml of compound
[16] = MRSA 5, with 12.5 μg/ml of compound
[17] = MRSA 5, with 25 μg/ml of compound
[18] = MRSA 5, with 50 μg/ml of compound
[19] = MRSA 6, with 12.5 μg/ml of compound
[20] = MRSA 6, with 25 μg/ml of compound
[21] = MRSA 6, with 50 μg/ml of compound
[22] = MRSA 7, with 12.5 μg/ml of compound
[23] = MRSA 7, with 25 μg/ml of compound
[24] = MRSA 7, with 50 μg/ml of compound
[25] = MRSA 8, with 12.5 μg/ml of compound
[26] = MRSA 8, with 25 μg/ml of compound
[27] = MRSA 8, with 50 μg/ml of compound
[28] = MRSA 9, with 12.5 μg/ml of compound
[29] = MRSA 9, with 25 μg/ml of compound
[30] = MRSA 9, with 50 μg/ml of compound
[31] = MRSA 10, with 12.5 μg/ml of compound
[32] = MRSA 10, with 25 μg/ml of compound
[33] = MRSA 10, with 50 μg/ml of compound
[34] = MRSA 12, with 12.5 μg/ml of compound
[35] = MRSA 12, with 25 μg/ml of compound
[36] = MRSA 12, with 50 μg/ml of compound
[37] = MRSA 16, with 12.5 μg/ml of compound
[38] = MRSA 16, with 25 μg/ml of compound
[39] = MRSA 16, with 50 μg/ml of compound
[40] = MRSA 17, with 12.5 μg/ml of compound
[41] = MRSA 17, with 25 μg/ml of compound
[42] = MRSA 17, with 50 μg/ml of compound
[43] = MRSA 18, with 12.5 μg/ml of compound
[44] = MRSA 18, with 25 μg/ml of compound
[45] = MRSA 18, with 50 μg/ml of compound
[46] = MRSA 20, with 12.5 μg/ml of compound
[47] = MRSA 20, with 25 μg/ml of compound
[48] = MRSA 20, with 50 μg/ml of compound
[49] = MRSA 21, with 12.5 μg/ml of compound
[50] = MRSA 21, with 25 μg/ml of compound
[51] = MRSA 21, with 50 μg/ml of compound
[52] = MRSA 22, with 12.5 μg/ml of compound
[53] = MRSA 22, with 25 μg/ml of compound
[54] = MRSA 22, with 50 μg/ml of compound
[55] = MRSA COL, with 12.5 μg/ml of compound
[56] = MRSA COL, with 25 μg/ml of compound
[57] = MRSA COL, with 50 μg/ml of compound
[58] = MSSA 1003, with 12.5 μg/ml of compound
[59] = MSSA 1003, with 25 μg/ml of compound
[60] = MSSA 1003, with 50 μg/ml of compound
[61] = MSSA 1010, with 12.5 μg/ml of compound
[62] = MSSA 1010, with 25 μg/ml of compound
[63] = MSSA 1010, with 50 μg/ml of compound
[64] = MSSA 1032, with 12.5 μg/ml of compound
[65] = MSSA 1032, with 25 μg/ml of compound
[66] = MSSA 1032, with 50 μg/ml of compound
[67] = RN4220, with 12.5 μg/ml of compound
[68] = RN4220, with 25 μg/ml of compound
[69] = RN4220, with 50 μg/ml of compound

Measured: Oxacillin MIC

COC(=O)C1(O)CC(O)C(OC(=O)c2cc(O)c(O)c(O)c2)C(OC(=O)c2cc(O)c(O)c(O)c2)C1 (stereo not drawn) [compound 1]
<0.063 µg/mL: [2]
0.125 µg/mL: [68]
2 µg/mL: [7] | [8] | [9] | [19] | [20] | [57]
16 µg/mL: [23] | [24] | [26] | [28] | [29] | [34] | [35] | [36]
4 µg/mL: [21] | [31] | [42]
128 µg/mL: [4] | [5] | [6] | [13] | [14] | [16] | [37] | [38] | [43] | [44]
32 µg/mL: [15] | [17] | [22] | [40] | [41] | [45] | [56]
0.25 µg/mL: [47] | [50] | [59] | [65]
<0.5 µg/mL: [1] | [3] | [10] | [25] | [46] | [48] | [49] | [58] | [60] | [61] | [63] | [64] | [66] | [67] | [69]
64 µg/mL: [18] | [39]
0.5 µg/mL: [11] | [53] | [62]
1 µg/mL: [12] | [27] | [51] | [52] | [54]
8 µg/mL: [30] | [32] | [33] | [55]

COC(=O)C1(O)CC(OC(=O)c2cc(O)c(O)c(O)c2)C(OC(=O)c2cc(O)c(O)c(O)c2)C(OC(=O)c2cc(O)c(O)c(O)c2)C1 (stereo not drawn) [compound 2]
2 µg/mL: [47]
4 µg/mL: [48]
>255 µg/mL: [37]
<0.5 µg/mL: [1] | [2] | [3] | [58] | [59] | [60] | [61] | [62] | [63] | [64] | [65] | [66] | [67] | [68] | [69]
16 µg/mL: [51] | [53]
>256 µg/mL: [4] | [5] | [6] | [16] | [28]
32 µg/mL: [8] | [9] | [11] | [12] | [20] | [49] | [52] | [54]
64 µg/mL: [10] | [21] | [24] | [25] | [26] | [27] | [31] | [32] | [33]
256 µg/mL: [7] | [13] | [14] | [15] | [17] | [18] | [22] | [29] | [34] | [36] | [38] | [39] | [41] | [42] | [43] | [55]
8 µg/mL: [46] | [50]
128 µg/mL: [19] | [23] | [30] | [35] | [40] | [44] | [45] | [56] | [57]
